Measurements from patent US20090054500A1, “Composition and methods useful in preventing cardiac hypertrophy” (The Brigham and Women's Hospital, Inc., priority 2005, published 2009).
“And” between values parts separate entries of the source, which are not always exact repeats. Equal entries are not always repeated. Where two headings read alike, the source gives them in different places.

Key:
[1] = tested on: mouse cardiomyoctes
Procedure: Cell hypertrophy was determined by the incorporation of ^3H-leucine.

[2] = tested on: cardiomyocytes; conditions: cardiomyocytes in vitro
[3] = tested on: gridlock phenotype associated with mutations in the CHF1 gene in zebrafish; conditions: Peterson, et al., Nat. Biotechnol. 22:595-599 (2004); cited from earlier work
[4] = tested on: VEGF; conditions: Peterson, et al., Nat. Biotechnol. 22:595 (2004); cited from earlier work

## COc1ccc(SCCc2ccncc2)cc1.Cl [GS4012, 4-(2-(4-Methoxyphenylsulfanyl)ethyl)pyridine, HCl]
[1]; Table 2, GS4012 + FCS, mean of 12 tests
  incorporation of 3H-leucine (cell hypertrophy), mean: 340.5825 counts per minute
[1]; Table 2, GS4012, no FCS, mean of 12 tests
  incorporation of 3H-leucine (cell hypertrophy), mean: 397.6667 counts per minute
[1]; Table 3, WT, GS4012 2.5 μg/ml, no FCS, mean of 8 tests, HCl
  incorporation of 3H-leucine (cell hypertrophy), mean: 329.4 counts per minute and 329.37 counts per minute
[1]; Table 3, WT, GS4012 + FCS, mean of 8 tests, HCl
  incorporation of 3H-leucine (cell hypertrophy), mean: 419.7925 counts per minute and 419.8 counts per minute
[1]; cpm for vehicle+GS4012 compared with vehicle+GS4012+FCS
  FCS induction of cardiomyocyte proliferation when GS4012 was present: did not occur
[2]
  effect on phenylephrine-induced hypertrophy: prevent phenylephrine-induced hypertrophy
[3]
  effect on gridlock phenotype: suppresses the gridlock phenotype
[4]
  VEGF and VEGF-mediated vessel formation: induces
